In ChEMBL document CHEMBL1151567, “Synthesis and anti HIV-1 activity of new thiadiazepindioxides” (Bioorg Med Chem Lett, 1995) one finds IC50, CC50 and Selectivity index data, which are given here for 17 compounds.

The subject of test [1] is C8166. As to the kind of experiment: Antiviral activity was evaluated by inhibition of HIV-1 replication in CD4+ lymphoblastoid cell line infected with HIV/IIIB strain. As to conditions: Homo sapiens. It is filed as functional, cell-based.
The subject of test [2] is C8166. As to the kind of experiment: Cytotoxic activity was evaluated in CD4+ lymphoblastoid cell line. It is filed as functional. The note with it: Homo sapiens.
For test [3], the system named is C8166. As to the kind of experiment: Ratio of CC50 to that of IC50 was determined. Type of test: functional.

A value given as a limit tells only on which side of the number the result lay.

With `Cc1cc2c(cc1Cl)Nc1ncccc1N(C)S2(=O)=O`, the IC50 in the test on C8166 [1] is over 300 µM.

`Cc1cc2c(cc1C)N(C)S(=O)(=O)C1=CC=CN(C(C)C)C1=N2` had a CC50 in the test on C8166 [2] of over 30 µM. The compound further displayed a half-inhibitory concentration (IC50) in the test with C8166 [1] of 0.6 µM. In the test on C8166 [3], the Selectivity index is over 50.

Take `CCN1c2ccccc2S(=O)(=O)N(C)c2cccnc21`: the IC50 in the test on C8166 [1] was over 300 µM.

`CC(C)=CCN1Cc2cc(Cl)cc3[nH]c(=S)n(c23)C[C@@H]1C` had a CC50 with C8166 [2] of 34 µM. For the same compound, the 50% inhibitory concentration (IC50) in the test on C8166 [1] was 0.0015 µM. Also, in the test with C8166 [3], the Selectivity index amounted to 22600.

Turning to `CCN1C=CC=C2C1=Nc1ccccc1S(=O)(=O)N2C`, the CC50 with C8166 [2] is 80 µM. The same compound registered an IC50 in the test with C8166 [1] of 3.7 µM. Besides, in the test with C8166 [3], the Selectivity index is on record as 22.

Take `CN1c2cccnc2Nc2ccccc2S1(=O)=O`: the IC50 in the test with C8166 [1] is over 300 µM.

As to `Cc1cc2c(cc1C)N(C)S(=O)(=O)c1cccnc1N2`, the CC50 in the test on C8166 [2] is over 125 µM. Further, the IC50 in the test with C8166 [1] is 4 µM. Besides, in the test on C8166 [3], the Selectivity index is over 31.

In the test on C8166 [2], `CCN1C=CC=C2C1=Nc1cc(Cl)c(C)cc1S(=O)(=O)N2C` registered a CC50 of 12 µM. The same compound returned an IC50 with C8166 [1] of 0.28 µM. Besides, in the test with C8166 [3], the Selectivity index turned out to be 42.

For `CCN1C=CC=C2C1=Nc1cc(C)c(C)cc1N(C)S2(=O)=O`, the cytotoxic concentration (CC50) with C8166 [2] is over 30 µM. In the test on C8166 [1], the IC50 came out at 0.33 µM. In addition, the Selectivity index in the test on C8166 [3] is recorded as over 90.

As for `CCN1c2cc(Cl)c(C)cc2S(=O)(=O)N(C)c2cccnc21`, in the test on C8166 [2], the CC50 is over 60 µM. Further, the IC50 in the test with C8166 [1] amounted to 48 µM. The Selectivity index in the test with C8166 [3] is given as over 1.

As to `Cc1cc2c(cc1C)N(C)S(=O)(=O)c1cccnc1N2C(C)C`, the CC50 in the test on C8166 [2] was over 60 µM. The compound also showed an IC50 with C8166 [1] of 0.032 µM. Also, the Selectivity index in the test with C8166 [3] is over 1875.

For `CCN1c2cc(C)c(C)cc2N(C)S(=O)(=O)c2cccnc21`, in the test on C8166 [2], the midpoint of cytotoxicity, the CC50, lay at 150 µM. For the same compound, in the test with C8166 [1], it took 0.04 µM to reach half-maximal inhibition (IC50). The Selectivity index in the test with C8166 [3] came to 3750.

On to `CN1c2cccnc2Nc2ncccc2S1(=O)=O`, for which the cytotoxic concentration (CC50) in the test with C8166 [2] was over 125 µM. This compound also had a half-maximal inhibitory concentration (IC50) in the test with C8166 [1] of 7 µM. For the same compound, the Selectivity index in the test with C8166 [3] was over 17.

`CCN1c2ncccc2N(C)S(=O)(=O)c2cccnc21` came in with a half-maximal cytotoxic concentration (CC50) with C8166 [2] of 300 µM. The IC50 in the test with C8166 [1] was over 300 µM. Moreover, the Selectivity index in the test on C8166 [3] is recorded as under 1.

For the compound `O=c1[nH]cnc2c1ncn2[C@H]1CC[C@@H](CO)O1` [DIDANOSINE], in the test with C8166 [2], it took 9000 µM to reach half-maximal cytotoxicity (CC50). In the test on C8166 [1], the 50% inhibitory concentration (IC50) was 1 µM. Also, the Selectivity index in the test with C8166 [3] worked out at 9000.

`Cc1ccnc2c1NC(=O)c1cccnc1N2C1CC1` [NEVIRAPINE] returned a CC50 in the test with C8166 [2] of 321 µM. This compound also displayed a concentration for half-maximal inhibition (IC50) with C8166 [1] of 0.04 µM. For the same compound, the Selectivity index in the test on C8166 [3] is reported as 8025.

In the test with C8166 [2], `Cc1cn([C@H]2C[C@H](N=[N+]=[N-])[C@@H](CO)O2)c(=O)[nH]c1=O` [ZIDOVUDINE] yielded a CC50 of 1400 µM. In the test with C8166 [1], it took 0.004 µM to reach half-maximal inhibition (IC50). The Selectivity index with C8166 [3] was 350000.
